Common to all, as to assay: HotSpot kinase profiling
Common to all, as to format: biochemical

Test [1] addresses T1, MEKK2 (Homo sapiens, UniProt Q9Y2U5).
T1 construct: purchased Reaction Biology Corp
T1 sequence (Q9Y2U5 1-619): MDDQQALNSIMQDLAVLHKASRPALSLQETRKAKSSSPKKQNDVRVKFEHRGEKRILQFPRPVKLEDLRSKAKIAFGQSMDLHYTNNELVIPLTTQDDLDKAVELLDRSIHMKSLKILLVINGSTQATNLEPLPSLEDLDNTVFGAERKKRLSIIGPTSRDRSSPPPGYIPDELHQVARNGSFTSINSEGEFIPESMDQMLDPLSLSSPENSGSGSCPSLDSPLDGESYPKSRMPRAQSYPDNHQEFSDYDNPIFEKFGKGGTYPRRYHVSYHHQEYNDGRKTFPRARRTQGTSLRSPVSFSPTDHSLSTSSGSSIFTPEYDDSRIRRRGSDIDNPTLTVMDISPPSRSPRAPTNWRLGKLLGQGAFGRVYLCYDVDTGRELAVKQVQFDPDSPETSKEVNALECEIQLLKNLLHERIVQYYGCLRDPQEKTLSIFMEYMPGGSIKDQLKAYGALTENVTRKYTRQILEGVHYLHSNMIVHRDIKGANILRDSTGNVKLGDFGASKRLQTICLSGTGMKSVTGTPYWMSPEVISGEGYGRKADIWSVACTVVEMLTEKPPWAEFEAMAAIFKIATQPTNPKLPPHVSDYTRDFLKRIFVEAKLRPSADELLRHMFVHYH
A digest of the protocol:
(§1)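 P81 filtration radiometric readout; 2 h incubation at room temperature; 0.1% phosphoric acid wash; DMSO negative control; % inhibition, mean of replicate runs.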

Test [2] deals with T2, IKKb/IKBKB (Homo sapiens, UniProt O14920).
T2 construct: purchased Reaction Biology Corp
T2 sequence (O14920 1-756): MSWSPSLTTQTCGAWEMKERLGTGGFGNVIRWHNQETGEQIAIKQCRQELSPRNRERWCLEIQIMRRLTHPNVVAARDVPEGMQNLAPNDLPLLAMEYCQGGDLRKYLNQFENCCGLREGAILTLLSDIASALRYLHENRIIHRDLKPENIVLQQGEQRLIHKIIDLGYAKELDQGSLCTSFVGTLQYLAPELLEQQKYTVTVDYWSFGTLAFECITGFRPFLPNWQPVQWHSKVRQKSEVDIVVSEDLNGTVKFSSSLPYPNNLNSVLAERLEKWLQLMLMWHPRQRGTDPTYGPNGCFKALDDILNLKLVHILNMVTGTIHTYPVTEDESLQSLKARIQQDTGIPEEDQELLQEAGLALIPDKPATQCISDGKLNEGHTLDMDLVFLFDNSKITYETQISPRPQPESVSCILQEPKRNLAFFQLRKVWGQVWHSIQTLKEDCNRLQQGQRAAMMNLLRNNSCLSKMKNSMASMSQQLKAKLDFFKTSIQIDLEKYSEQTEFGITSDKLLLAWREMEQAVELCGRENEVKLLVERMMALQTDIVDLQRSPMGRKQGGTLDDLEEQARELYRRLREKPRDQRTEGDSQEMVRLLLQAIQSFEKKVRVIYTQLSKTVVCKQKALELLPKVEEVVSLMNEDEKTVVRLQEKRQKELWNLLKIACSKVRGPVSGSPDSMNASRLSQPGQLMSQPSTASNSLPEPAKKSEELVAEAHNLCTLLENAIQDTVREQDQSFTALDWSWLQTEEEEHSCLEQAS
Put shortly:
as §1

The target in test [3] is T3, SIK3 (Homo sapiens, UniProt Q9Y2K2).
T3 construct: purchased Reaction Biology Corp
T3 sequence (Q9Y2K2 whole entry): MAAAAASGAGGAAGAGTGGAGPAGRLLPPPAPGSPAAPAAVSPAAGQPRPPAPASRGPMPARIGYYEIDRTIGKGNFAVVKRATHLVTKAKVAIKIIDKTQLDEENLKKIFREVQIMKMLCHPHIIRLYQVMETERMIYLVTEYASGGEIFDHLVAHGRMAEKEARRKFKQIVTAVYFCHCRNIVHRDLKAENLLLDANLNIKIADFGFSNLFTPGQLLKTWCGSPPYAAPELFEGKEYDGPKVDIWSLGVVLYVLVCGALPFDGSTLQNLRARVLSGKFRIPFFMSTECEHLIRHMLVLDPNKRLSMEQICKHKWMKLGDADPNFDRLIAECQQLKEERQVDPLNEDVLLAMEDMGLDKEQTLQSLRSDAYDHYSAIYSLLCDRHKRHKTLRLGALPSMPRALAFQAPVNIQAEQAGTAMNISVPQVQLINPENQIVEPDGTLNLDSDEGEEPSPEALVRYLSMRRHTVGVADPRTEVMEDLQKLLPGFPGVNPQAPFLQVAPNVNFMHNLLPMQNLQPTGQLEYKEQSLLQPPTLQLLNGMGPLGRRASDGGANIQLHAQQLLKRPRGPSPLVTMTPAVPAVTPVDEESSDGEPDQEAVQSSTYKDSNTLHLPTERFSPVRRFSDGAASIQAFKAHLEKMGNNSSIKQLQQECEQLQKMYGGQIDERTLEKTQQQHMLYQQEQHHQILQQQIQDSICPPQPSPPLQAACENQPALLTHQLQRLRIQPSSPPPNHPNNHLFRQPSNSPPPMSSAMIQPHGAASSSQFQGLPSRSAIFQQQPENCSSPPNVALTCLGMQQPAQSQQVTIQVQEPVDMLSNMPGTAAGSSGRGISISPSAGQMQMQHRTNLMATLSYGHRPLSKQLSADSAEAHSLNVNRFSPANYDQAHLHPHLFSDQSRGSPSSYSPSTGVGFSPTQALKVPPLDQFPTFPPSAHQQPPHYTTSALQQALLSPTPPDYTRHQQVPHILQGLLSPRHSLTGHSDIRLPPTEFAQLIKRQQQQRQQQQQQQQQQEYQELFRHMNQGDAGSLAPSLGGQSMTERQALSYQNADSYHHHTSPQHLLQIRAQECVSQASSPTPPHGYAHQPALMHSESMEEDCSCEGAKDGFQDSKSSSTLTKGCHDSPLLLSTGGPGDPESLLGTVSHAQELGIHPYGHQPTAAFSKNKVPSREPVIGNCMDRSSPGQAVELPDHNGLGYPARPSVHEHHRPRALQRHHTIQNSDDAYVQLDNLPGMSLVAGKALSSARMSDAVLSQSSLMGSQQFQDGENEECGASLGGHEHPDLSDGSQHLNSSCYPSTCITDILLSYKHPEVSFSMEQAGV
Put shortly: as §1

The target of test [4] is T4, CDK1/cyclin E (Homo sapiens, UniProt P06493).
T4 construct: purchased Reaction Biology Corp
T4 sequence (P06493 whole entry): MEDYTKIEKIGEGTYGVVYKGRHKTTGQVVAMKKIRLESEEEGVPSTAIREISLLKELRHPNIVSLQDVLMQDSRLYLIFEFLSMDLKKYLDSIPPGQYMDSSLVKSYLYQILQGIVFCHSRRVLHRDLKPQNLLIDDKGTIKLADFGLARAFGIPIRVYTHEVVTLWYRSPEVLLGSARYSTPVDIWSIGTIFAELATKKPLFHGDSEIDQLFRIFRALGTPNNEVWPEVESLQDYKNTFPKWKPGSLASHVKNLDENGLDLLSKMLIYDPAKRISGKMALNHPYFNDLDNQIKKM
T4 sequence (P24864 whole entry partner): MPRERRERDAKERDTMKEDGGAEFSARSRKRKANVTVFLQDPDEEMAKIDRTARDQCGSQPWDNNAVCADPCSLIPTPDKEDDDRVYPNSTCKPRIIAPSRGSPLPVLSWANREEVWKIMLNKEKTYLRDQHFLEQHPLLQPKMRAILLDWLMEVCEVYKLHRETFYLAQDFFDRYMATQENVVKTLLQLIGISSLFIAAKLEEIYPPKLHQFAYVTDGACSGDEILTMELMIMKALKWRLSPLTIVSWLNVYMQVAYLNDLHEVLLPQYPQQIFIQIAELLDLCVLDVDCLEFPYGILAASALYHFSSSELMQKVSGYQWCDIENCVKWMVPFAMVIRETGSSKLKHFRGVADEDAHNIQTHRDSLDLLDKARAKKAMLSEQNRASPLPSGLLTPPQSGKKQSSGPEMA
A digest of the protocol:
as §1

Test [5] has as its target T5, GCK/MAP4K2 (Homo sapiens, UniProt Q12851).
T5 construct: purchased Reaction Biology Corp
T5 sequence (Q12851 1-820): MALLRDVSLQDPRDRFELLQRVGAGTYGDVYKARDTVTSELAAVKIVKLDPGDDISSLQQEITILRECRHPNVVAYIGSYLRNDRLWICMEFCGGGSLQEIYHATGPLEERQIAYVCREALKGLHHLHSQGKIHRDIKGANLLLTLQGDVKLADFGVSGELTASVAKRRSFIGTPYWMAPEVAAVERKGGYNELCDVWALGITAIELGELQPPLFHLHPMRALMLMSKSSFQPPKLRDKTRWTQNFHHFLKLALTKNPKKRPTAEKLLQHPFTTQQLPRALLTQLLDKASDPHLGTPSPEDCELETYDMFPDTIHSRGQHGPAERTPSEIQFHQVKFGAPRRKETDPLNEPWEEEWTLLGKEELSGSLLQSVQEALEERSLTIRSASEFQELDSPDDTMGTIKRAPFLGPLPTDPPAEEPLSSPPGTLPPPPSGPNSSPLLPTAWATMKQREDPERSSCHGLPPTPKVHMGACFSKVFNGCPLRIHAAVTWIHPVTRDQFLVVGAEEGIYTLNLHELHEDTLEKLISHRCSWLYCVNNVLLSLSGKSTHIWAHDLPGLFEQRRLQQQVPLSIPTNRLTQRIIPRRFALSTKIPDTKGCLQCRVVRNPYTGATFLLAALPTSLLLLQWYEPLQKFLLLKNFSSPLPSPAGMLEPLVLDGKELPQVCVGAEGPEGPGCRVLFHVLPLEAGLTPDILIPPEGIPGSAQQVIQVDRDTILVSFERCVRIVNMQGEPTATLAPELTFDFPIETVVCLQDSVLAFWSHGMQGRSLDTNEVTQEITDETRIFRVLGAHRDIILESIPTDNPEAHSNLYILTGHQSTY
Put shortly:
as §1

The mark [6] stands for this setting: read-out: % Enzyme Activity (relative to DMSO controls) Run 1.
[7] abbreviates: read-out: % Enzyme Activity (relative to DMSO controls) Run 2.

The record followed here is patent US9492471B2, “Methods of treating a disease or disorder associated with Bruton'S Tyrosine Kinase” (Celgene Avilomics Research, Inc., priority 2013, dated 2016).

Each structure is given as a SMILES string. Read-outs that look alike come from different tables or passages of the source.

As to `C=CC(=O)Nc1cccc(Nc2nc(Nc3ccc(OCCOC)c(F)c3)ncc2F)c1` [Compound 2], the inhibition at 3 µM in test [1] is -10.9%; in test [2], 3.75%; in test [3], 7.93%; in test [4], -1.3%; in test [5], -0.14%. Moreover, the remaining activity at 3 µM was found to be 108% in test [1] (setting [6]); 114% in test [1] (setting [7]); 95.4% in test [2] (setting [6]); 97.1% in test [2] (setting [7]); 91.3% in test [3] (setting [6]); 92.8% in test [3] (setting [7]). Moreover, the remaining activity at 3 µM worked out at 100% in test [4] (setting [6]), 102% in test [4] (setting [7]), 100% in test [5] (setting [6]) and 100% in test [5] (setting [7]).

The inhibition is the relative decrease from the control value, in per cent.
